Source: PMC3199744, “Preformulation and stability in biological fluids of the retrocyclin RC-101, a potential anti-HIV topical microbicide” (AIDS Research and Therapy, 2011)

Experiments:
[1] = tested on: human ectocervical tissue; conditions: preliminary studies, data not shown
[2] = tested on: normal vaginal microflora; conditions: preliminary studies, data not shown
[3] = Oxidation of RC-101 by hydrogen peroxide, HPLC; conditions: EDTA 1.0 μg/mL, H2O2 0.002%, RC-101 500 μg/mL, HPLC over time
Description: For all pre-formulation studies described below, triplicate solutions of RC-101 (500 μg/mL) were prepared in either water or aqueous buffer solution. Thermal degradation studies were conducted at 25, 37, and 65°C for a minimum period of 1 week. The effect of pH on the stability of RC-101 was evaluated over the pH range from 3 to 12 using 10 mM phosphate buffer solutions, at low (50 mmol/kg) and high (500 mmol/kg) ionic strength. Oxidation of RC-101 was evaluated by exposing a solution of RC-101 to hydrogen peroxide (H2O2) at concentrations of 3.0, 0.08, and 0.002% (v/v). The high H2O2 concentration (3.0%) was selected as a forced degradation concentration. […] Protection against oxidation was investigated by the addition of antioxidants commonly used in pharmaceutical products. The antioxidants used in this study were: methionine (95.2 μg/mL or 250 μg/mL), cysteine (95.2 μg/mL), glutathione (90.9 μg/mL), vitamin E TPGS (90.9 μg/mL), ascorbic acid (1.0 mg/mL), sodium ascorbate (1.0 mg/mL), and EDTA (1.0 μg/mL).
RC-101 concentration after exposure to preformulation conditions was analyzed by HPLC as previously described [11]. Briefly, the HPLC system (Waters Corporation, Milford, MA) was equipped with an autoinjector model 717, a quaternary pump model 600, and an ultraviolet (UV) detector model 2487 set up at 215 nm. Separation of RC-101 from degradant products was achieved using a Phenomenex Jupiter 5 μC5 300 Å (4.6 × 250 mm) column (Phenomenex, Torrance, CA) protected by a Widepore C5 (4 × 3.0 mm) guard cartridge (Phenomenex). The gradient consisted of mobile phase A (0.1% TFA in water (v/v)), and mobile phase B (0.07% TFA in acetonitrile (v/v)) pumped at a flow rate of 1.0 mL/min. […]
HPLC data obtained from the preformulation studies were expressed as the average percentage of the peak area from time 0 ± standard deviation, n = 3. Results were analyzed by one-way analysis of variance (ANOVA) with multiple comparisons of individual time points by using post hoc Bonferroni correction to detect significant differences under different conditions. […]

For `O=C(O)CN(CCN(CC(=O)O)CC(=O)O)CC(=O)O` [EDTA, Ethylenediamine tetraacetic acid], the toxic concentration [1] was ≥ 1%, the toxic concentration [2] was ≥ 1% and the “protection of RC-101 against oxidation after exposure to H2O2” value [3] was “protection”.
